Reference: ChEMBL document CHEMBL5537146, “Novel orally bioavailable piperidine derivatives as extracellular arginase inhibitors developed by a ring expansion” (Eur J Med Chem, 2024)

Experiments:
Arginase-1 [1] = molecular target: T1, Arginase-1 (Homo sapiens, UniProt P05089); assay: Inhibition of human recombinant ARG1 expressed in Escherichia coli using L-arginine hydrochloride as substrate assessed as inhibition of urea production incubated for 20 mins by colorimetric analysis
T1 sequence (P05089 whole entry): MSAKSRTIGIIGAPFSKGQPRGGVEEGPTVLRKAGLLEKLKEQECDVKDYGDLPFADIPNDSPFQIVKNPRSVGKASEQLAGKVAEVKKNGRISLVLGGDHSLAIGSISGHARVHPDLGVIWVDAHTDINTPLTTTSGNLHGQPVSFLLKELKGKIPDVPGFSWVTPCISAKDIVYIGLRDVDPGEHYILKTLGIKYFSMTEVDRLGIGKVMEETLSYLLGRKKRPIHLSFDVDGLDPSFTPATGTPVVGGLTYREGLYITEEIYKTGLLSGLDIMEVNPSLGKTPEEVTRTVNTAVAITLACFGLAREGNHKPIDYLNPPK

[2] = Inhibition of mouse intracellular ARG in M2 polarized C57BL/6 mouse BMDM cells incubated for 24 hrs by absorbance based analysis; assay type: cell-based; conditions: C57BL/6, BMDM
[3] = molecular target: Voltage-gated inwardly rectifying potassium channel KCNH2 (Homo sapiens, UniProt Q12809); assay: Inhibition of hERG; assay type: toxicity
[4] = Toxicity in Sprague-Dawley rat assessed as mortality upto 1 g/Kg, po measured after 7 days; assay type: organism-based; conditions: in vivo, 1000 mg/kg, 168 h, time 7 day
[5] = Clearance in Sprague-Dawley rat at 3 mg/kg, iv measured over 24 hrs by LC-MS/MS analysis; assay type: ADME, organism-based; conditions: in vivo
[6] = Permeability in human Caco-2 cells; assay type: ADME, cell-based
[7] = Drug metabolism in Balb/c mouse plasma assessed as (3R,5S)-3-amino-5-(2-boronoethyl)piperidine-3-carboxylic acid metabolite formation at 100 mg/kg, po measured for 24 hrs by LC-MS/MS analysis; assay type: ADME, organism-based; conditions: in vivo
[8] = Toxicity in Sprague-Dawley rat assessed as change in body weight measured after 7 days; conditions: in vivo, 168 h, time 7 day
[9] = Volume of distribution at steady state in Sprague-Dawley rat at 3 mg/kg, iv measured over 24 hrs by LC-MS/MS analysis; assay type: ADME, organism-based; conditions: in vivo, read-out: Vdss
[10] = Drug metabolism in Balb/c mouse plasma assessed as increase in arginine level by measuring fold change at 100 mg/kg, po measured for 24 hrs […] by LC-MS/MS analysis; assay type: ADME, organism-based; conditions: in vivo
[11] = Oral bioavailability in Sprague-Dawley rat at 10 mg/kg measured over 24 hrs by LC-MS/MS analysis; assay type: ADME, organism-based; conditions: in vivo
[12] = Genotoxicity in Salmonella typhimurium TA98 in presence of S9 fraction by Ames test; assay type: toxicity; conditions: salmonella enterica subsp. enterica serovar typhimurium
[13] = Terminal elimination half-life in Sprague-Dawley rat at 3 mg/kg, iv measured over 24 hrs by LC-MS/MS analysis; assay type: ADME, organism-based; conditions: in vivo, read-out: beta t1/2 (converted)
[14] = Tmax in Sprague-Dawley rat at 10 mg/kg, po measured over 24 hrs by LC-MS/MS analysis; assay type: ADME, organism-based; conditions: in vivo
[15] = Drug metabolism in Sprague-Dawley rat plasma assessed as increase in arginine level by measuring fold change at 10 mg/kg, po measured for 24 hrs by LC-MS/MS analysis; assay type: ADME, organism-based; conditions: in vivo
[16] = AUC (0 to infinity) in Sprague-Dawley rat at 10 mg/kg, po measured for 24 hrs by LC-MS/MS analysis; assay type: ADME, organism-based; conditions: in vivo
[17] = Oral bioavailability in Balb/c mouse at 100 mg/kg measured for 24 hrs by LC-MS/MS analysis; assay type: ADME, organism-based; conditions: in vivo
Arginase-1 [18] = molecular target: T1, Arginase-1; assay: Inhibition of extracellular arginase (unknown origin)

Voltage-gated inwardly rectifying potassium channel KCNH2, sequence (Q12809 whole entry): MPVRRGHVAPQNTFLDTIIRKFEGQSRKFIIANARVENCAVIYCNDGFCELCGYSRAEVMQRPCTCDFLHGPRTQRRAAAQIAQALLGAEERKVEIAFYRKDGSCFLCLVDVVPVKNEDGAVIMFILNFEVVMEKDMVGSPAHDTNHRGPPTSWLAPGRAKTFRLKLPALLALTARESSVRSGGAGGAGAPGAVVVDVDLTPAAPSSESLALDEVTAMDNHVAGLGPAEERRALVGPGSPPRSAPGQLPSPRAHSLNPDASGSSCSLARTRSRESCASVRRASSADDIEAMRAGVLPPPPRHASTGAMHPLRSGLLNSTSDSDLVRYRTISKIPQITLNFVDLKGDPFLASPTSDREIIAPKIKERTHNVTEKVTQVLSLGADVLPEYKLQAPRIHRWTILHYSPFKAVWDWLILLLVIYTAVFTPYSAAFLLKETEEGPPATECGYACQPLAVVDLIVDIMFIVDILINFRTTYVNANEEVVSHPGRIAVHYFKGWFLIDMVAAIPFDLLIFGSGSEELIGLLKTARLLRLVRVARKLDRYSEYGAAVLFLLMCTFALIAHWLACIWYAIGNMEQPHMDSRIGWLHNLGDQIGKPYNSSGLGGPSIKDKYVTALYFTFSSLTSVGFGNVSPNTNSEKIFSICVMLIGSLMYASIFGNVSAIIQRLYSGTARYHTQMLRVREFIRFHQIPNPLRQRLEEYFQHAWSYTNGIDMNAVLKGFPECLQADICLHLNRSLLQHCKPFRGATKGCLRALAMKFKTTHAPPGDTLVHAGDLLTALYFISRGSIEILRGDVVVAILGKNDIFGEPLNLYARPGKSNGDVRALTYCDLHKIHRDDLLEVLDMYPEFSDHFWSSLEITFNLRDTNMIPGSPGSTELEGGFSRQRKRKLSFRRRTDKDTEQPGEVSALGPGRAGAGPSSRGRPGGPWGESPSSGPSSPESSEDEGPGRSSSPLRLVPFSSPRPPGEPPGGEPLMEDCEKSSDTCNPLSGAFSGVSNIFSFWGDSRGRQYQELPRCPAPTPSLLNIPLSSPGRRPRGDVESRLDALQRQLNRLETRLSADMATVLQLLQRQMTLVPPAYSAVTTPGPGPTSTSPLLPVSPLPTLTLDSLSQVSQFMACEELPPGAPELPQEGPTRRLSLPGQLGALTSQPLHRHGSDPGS

Structure (SMILES) | IC50 (Arginase-1 [1]) | IC50 [2] | also measured
C[C@@H]1N(C(=O)[C@@H](N)CCCNC(=N)N)C[C@@H](CCB(O)O)C[C@]1(N)C(=O)O | 400 nM | – | –
N[C@@H](Cc1c[nH]cn1)C(=O)N1C[C@@H](CCB(O)O)C[C@](N)(C(=O)O)C1 | 210 nM | > 300000 nM | –
Cn1cc(C[C@@H](N)C(=O)N2C[C@@H](CCB(O)O)C[C@](N)(C(=O)O)C2)c2ccccc21 | 740 nM | > 300000 nM | –
N=C(N)NCCC[C@H](N)C(=O)N1C[C@@H](CCB(O)O)C[C@](N)(C(=O)O)C1 | 160 nM | > 300000 nM | inhibition (INH) [3]: Not Active; Activity [4]: Non-Toxic; clearance [5]: 5.87 mL/min/kg; permeability [6]: Impermeable; Drug metabolism [7]: Metabolite_Detected; Activity [8]: Non-Toxic; Vd [9]: 0.69 L/kg; fold change (FC) [10]: 3; bioavailability [11]: 18.8%; Activity [12]: Toxic; half-life [13]: 2.66 h; Tmax [14]: 1 h; fold change (FC) [15]: 2
N[C@@H](Cc1ccc(O)cc1)C(=O)N1C[C@@H](CCB(O)O)C[C@](N)(C(=O)O)C1 | 280 nM | > 300000 nM | –
N[C@@H](Cc1c[nH]c2ccccc12)C(=O)N1C[C@@H](CCB(O)O)C[C@](N)(C(=O)O)C1 | 280 nM | > 300000 nM | –
CNCC(=O)N1C[C@@H](CCB(O)O)C[C@](N)(C(=O)O)C1 | 420 nM | > 300000 nM | –
N[C@@H](Cc1ccccc1)C(=O)N1C[C@@H](CCB(O)O)C[C@](N)(C(=O)O)C1 | 240 nM | > 300000 nM | clearance [5]: 5.87 mL/min/kg; Vd [9]: 0.69 L/kg; bioavailability [11]: 18.8%; half-life [13]: 2.66 h; Tmax [14]: 1 h; fold change (FC) [15]: 2
C[C@H](N)C(=O)N1C[C@@H](CCB(O)O)C[C@](N)(C(=O)O)[C@@H]1C | 250 nM | – | clearance [5]: 5.87 mL/min/kg; Vd [9]: 0.69 L/kg; bioavailability [11]: 65.6%; half-life [13]: 2.66 h; Tmax [14]: 1 h; fold change (FC) [15]: 2
N[C@]1(C(=O)O)C[C@H](CCB(O)O)CN(C(=O)[C@@H]2CCCN2)C1 | 350 nM | > 300000 nM | –
N[C@@]1(C(=O)O)CNC[C@@H](CCB(O)O)C1 | 830 nM | – | –
COC(=O)[C@@]1(N)C[C@H](CCB(O)O)CN(C(=O)[C@H](C)N)C1 | > 10000 nM | – | –
N[C@@]1(C(=O)O)CCC[C@@H](CCB(O)O)C1 | 1200 nM | – | –
CN(C)C[C@@H]1CC[C@@H](CCB(O)O)C[C@]1(N)C(=O)O | 20 nM | 1100 nM | IC50 (Arginase-1 [18]): 20 nM
C[C@H](N)C(=O)N1C[C@H](CCCB(O)O)[C@](N)(C(=O)O)C1 | – | 56200 nM | –

Further lines, with some results ahead:

IC50 (Arginase-1 [1]) | IC50 [2] | Structure (SMILES) | also measured
650 nM | > 300000 nM | N[C@@H](CC(=O)O)C(=O)N1C[C@@H](CCB(O)O)C[C@](N)(C(=O)O)C1 | –
> 10000 nM | – | C[C@H](N)C(=O)N1C[C@H](CCB(O)O)C[C@@](N)(C(=O)O)C1 | –
360 nM | > 300000 nM | NC(=O)C[C@H](N)C(=O)N1C[C@@H](CCB(O)O)C[C@](N)(C(=O)O)C1 | –
380 nM | > 300000 nM | C[C@@H](O)[C@H](N)C(=O)N1C[C@@H](CCB(O)O)C[C@](N)(C(=O)O)C1 | –
420 nM | > 300000 nM | NC(=O)CC[C@H](N)C(=O)N1C[C@@H](CCB(O)O)C[C@](N)(C(=O)O)C1 | –
360 nM | > 300000 nM | NC(=O)NCCC[C@H](N)C(=O)N1C[C@@H](CCB(O)O)C[C@](N)(C(=O)O)C1 | –
250 nM | > 300000 nM | NCCCC[C@H](N)C(=O)N1C[C@@H](CCB(O)O)C[C@](N)(C(=O)O)C1 | –
> 10000 nM | – | C[C@H](N)C(=O)N1C[C@H](CCB(O)O)C[C@](N)(C(=O)O)C1 | –
340 nM | > 300000 nM | CCC[C@H](N)C(=O)N1C[C@@H](CCB(O)O)C[C@](N)(C(=O)O)C1 | –
610 nM | > 300000 nM | CC(C)C[C@H](N)C(=O)N1C[C@@H](CCB(O)O)C[C@](N)(C(=O)O)C1 | –
> 10000 nM | – | C[C@H](N)C(=O)N1C[C@@H](CCB(O)O)C[C@@](N)(C(=O)O)C1 | –
760 nM | > 300000 nM | N[C@@H](CS)C(=O)N1C[C@@H](CCB(O)O)C[C@](N)(C(=O)O)C1 | –
310 nM | > 300000 nM | NCCC[C@H](N)C(=O)N1C[C@@H](CCB(O)O)C[C@](N)(C(=O)O)C1 | –
400 nM | > 300000 nM | CSCC[C@H](N)C(=O)N1C[C@@H](CCB(O)O)C[C@](N)(C(=O)O)C1 | –
250 nM | > 300000 nM | NCC(=O)N1C[C@@H](CCB(O)O)C[C@](N)(C(=O)O)C1 | AUC(0-inf) [16]: 2680 ng·h/mL; clearance [5]: 5.87 mL/min/kg; Vd [9]: 0.69 L/kg; bioavailability [11]: 18.8%; half-life [13]: 2.66 h; Tmax [14]: 1 h; fold change (FC) [15]: 2
760 nM | > 300000 nM | CC[C@H](C)[C@H](N)C(=O)N1C[C@@H](CCB(O)O)C[C@](N)(C(=O)O)C1 | –
280 nM | > 300000 nM | N[C@@H](CO)C(=O)N1C[C@@H](CCB(O)O)C[C@](N)(C(=O)O)C1 | –
270 nM | > 300000 nM | C[C@H](N)C(=O)N1C[C@@H](CCB(O)O)C[C@](N)(C(=O)O)C1 | clearance [5]: 5.87 mL/min/kg; Drug metabolism [7]: Metabolite_Detected; Vd [9]: 0.69 L/kg; fold change (FC) [10]: 3; bioavailability [11]: 18.8%; bioavailability [17]: 58%; half-life [13]: 2.66 h; Tmax [14]: 1 h; fold change (FC) [15]: 2
680 nM | > 300000 nM | N[C@@H](CCC(=O)O)C(=O)N1C[C@@H](CCB(O)O)C[C@](N)(C(=O)O)C1 | –
3220 nM | > 300000 nM | C[C@@H](N)C(=O)N1C[C@@H](CCB(O)O)C[C@](N)(C(=O)O)C1 | –
360 nM | > 300000 nM | CC(C)[C@H](N)C(=O)N1C[C@@H](CCB(O)O)C[C@](N)(C(=O)O)C1 | –
